Assay results as given in patent US20250339426A1, “GCN2 MODULATOR FOR TREATING CANCER” (HIBERCELL, INC., priority 2022, published 2025).

Assays:
[1] = system: HT1080 (human fibrosarcoma cells); test: In vivo tumor growth inhibition, HT1080 xenograft; design: species or system BALB/c nude mice; details: both 1 and 3 mg/kg, oral gavage
Protocol: HT1080 (human fibrosarcoma cells): Female 6-8 weeks old BALB/c nude mice were inoculated subcutaneously on the right flank with HT1080 tumor cells (1×10^7) in 0.1 ml of EMEM medium without serum for tumor development. The treatments were started when the mean tumor size reached approximately 109 mm^3 at Day 4 post inoculation and continued until end of study by oral gavage dosing of HC-7366 at listed doses (vehicle, 0.3 mg/kg HC-7366 BID (two times per day), 1 mg/kg HC-7366 BID, 3 mg/kg HC-7366 BID, 0.6 mg/kg HC-7366 QD (one time per day), 2 mg/kg HC-7366 QD, or 6 mg/kg HC-7366 QD, FIGS. 6-7).
(§1) [formula] • 2.2.2 Tumor Measurements: The measurement of tumor size was conducted three times weekly with a caliper and recorded. The tumor volume (mm^3) was estimated using the formula: TV=a×b^2/2, where “a” and “b” is long and short diameters of a tumor, respectively. Tumor volume was calculated using the formula [tumor volume (mm^3)=π/6×length×width^2).
(§2) Regression was calculated using the formula=100×ΔT/T initial, if ΔT<0. Animals with 0 mm^3 tumor volume (no measurable tumor) for three consecutive measurements were considered as complete responders and animals with 50% tumor regressions were partial responders.

[2] = system: GCN2 pathway (p-GCN2, ATF4) in HT1080 cells; test: Western blot analysis of HT1080 cell lysates; format: cell-based, human; details: FIG. 5
Protocol: The HT1080 cells were harvested and counted and diluted to the desired density. 2 mL of cell suspension was added into each well of 6-well cell culture plate. The plates were transferred into 37° C., 5% CO2 incubator overnight. The cells were treated as described above. The media was aspirated, and cells were washed with ice cold phosphate buffered saline (PBS). Ice cold 1× radioimmunoprecipitation assay (RIPA) lysis buffer supplemented with protease and phosphatase inhibitors was added to the cell pellets, on ice. After 30 min on ice the cell lysates were centrifuged at 4° C., 12,000 rpm for 15 minutes and the supernatant collected. Protein concentration was determined using BCA kit. The cell lysates were mixed with 5× sodium dodecyl sulfate (SDS) loading buffer and denatured at 95° C. for 5 minutes. […] After the electrophoresis was completed, the separated protein was transferred to a nitrocellulose membrane using transblot system for 90 min, 300 mA, then the membrane was blocked with (tris-buffered saline) TBS buffer (5% bovine serum albumin (BSA)) for 1 hr at room temperature. The membrane was exposed to the primary antibodies overnight in cold room in TBS buffer (1% BSA). The membrane was then washed with TBS-Tween for 3×10 min at R/T, incubated with secondary antibodies in TBS buffer (1% BSA) for 1 hr at RT. The membrane was washed with TBS-Tween for 3×10 min at R/T and the imaging was acquired with Li—COR imaging system.

[3] = system: newly synthesized proteins; test: Puromycin labeling of newly synthesized proteins; format: cell-based; details: 100 nM
[4] = system: patient-derived Champions' human AML models; test: Ex vivo AML PDX cell viability (Cell Titer Glo), 30 models; format: cell-based; details: for EC50: Homo sapiens
Protocol: . Cell viability was assayed after treating PDX models with DMSO or HC-7366 for 6 days using a plate-based luminescence assay (Cell Titer Glo). […]
EC50 values were calculated to the bottom of the curve and are provided below. Viability curves are provided for the models CTG-2229 (FIG. 81), CTG-3680 (FIG. 82), CTG-3667 (FIG. 83), CTG-2456 (FIG. 84), CTG-2457 (FIG. 85), and CTG-2454 (FIG. 86).

[5] = system: DLD-1 (human colorectal cancer cells); test: In vivo tumor growth inhibition, DLD-1 xenograft; design: species or system BALB/c nude mice; details: for TGI %: combination studies (Examples 9, 11)
Protocol: (§3) DLD-1 (human colorectal cancer cells): Female 6-8 weeks old BALB/c nude mice were inoculated subcutaneously on the right flank with DLD-1 tumor cells (5×10^6) in 0.1 ml of RPMI1640 medium without serum for tumor development. The treatments were started when the mean tumor size reached approximately 195 mm^3 at Day 7 post inoculation and continued until end of study by twice daily oral gavage dosing of HC-7366 at listed doses (vehicle, 0.3 mg/kg HC-7366, 1 mg/kg HC-7366, 3 mg/kg HC-7366, 10 mg/kg HC-7366, or 30 mg/kg HC-7366, FIG. 10). For the time course study, tumors were harvested at Days 4, 7 and 14. Tumors were then used for IHC and RNAseq experiments (see Example 21).
as §1, §2
(§4) The effect of DC101 in combination with HC-7366 in DLD-1 tumor-bearing mice was evaluated using protocols analogous to those described in Example 6. Mice were treated with 3 or 30 mg/kg HC-7366, twice daily by oral gavage. DC101 was administered at 20 mg/kg twice weekly and with twice daily dosing via intraperitoneal injection.
as §4, with “5-fluorouracil” for “DC101”, “75” for “20”, “once a week,” for “twice weekly and with”, “daily” for “daily dosing”, “intravenous” for “intraperitoneal”

[6] = system: upstream regulators of differentially expressed genes in DLD-1 tumors; test: RNAseq analysis of DLD-1 tumors; format: in vivo, mice
Protocol: as §3
DLD-1 tumor bearing mice were treated with HC-7366 at 0.3, 1, 3, 10 and 30 mg/kg twice a day for 14 days. Tumors were harvested for RNAseq analysis at Day 4, Day 7 and Day 14 (FIG. 128).

CNC(=O)c1ncn2cc(-c3c(F)ccc(NS(=O)(=O)c4cc(Cl)cnc4OC)c3F)ncc12 [HC-7366, 6-(3-((5-chloro-2-methoxypyridine)-3-sulfonamido)-2,6-difluorophenyl)-N-methylimidazo[1,5-a]pyrazine-1-carboxamide]
tumor growth inhibition [1]: up to 80%
GCN2 pathway, HC-7366 by itself ([2]; 0 to 10 μM): activation of GCN2 pathway
halofuginone induced p-GCN2 and ATF4 ([2]; 100 nM Halofuginone): inhibited
puromycin labeling of newly synthesized proteins [3]: potently reduced
viability of primary AML PDX cells ([4]; 4.57-10,000 nM, 6 days): potently reduced viability
EC50 ([4]; 5 PDX models, resistant responders): 0.924 to 2.25 µM
EC50 ([4]; 11 PDX models, sensitive responders): < 0.1 µM
EC50 ([4]; 12 PDX models, moderate responders): 0.1 to 0.35 µM
response ([4]; two models): no response
tumor growth inhibition ([5]; 1 mg/kg and 3 mg/kg twice daily oral): ~78%
TGI % ([5]; HC-7366 3 mg/kg twice daily oral): ~65%
TGI % ([5]; HC-7366 30 mg/kg twice daily oral): ~21%
HIF1α, SMAD4 and E2F1 signature ([6]; 0.3-30 mg/kg twice a day): reduction
ATF4 (upstream regulator of differentially expressed genes) ([6]; all doses (0.3-30 mg/kg twice a day)): significantly induced
